Test: Toxicity against rabbit RBC assessed as hemolytic activity after 15 mins
Format: cell-based, Oryctolagus cuniculus
Conditions: erythrocyte, 0.25 h

SMILES	Activity
C=C1CC[C@H](C(C)C)[C@@H]2[C@H]1[C@H]1C[C@](C)(O)[C@@H](O)CC[C@@](C)(OC(=O)CCC)[C@@H]2O1 [LITOPHYNIN E]	Toxic
C=C1[C@@H]2[C@H]([C@H](C(C)C)C[C@H]1OC(C)=O)[C@@H]1O[C@H]2C[C@](C)(O)[C@H](O)CC[C@@]1(C)OC(=O)CCC [LITOPHYNIN I MONOACETATE]	Toxic
C=C1CC[C@H](C(C)C)[C@@H]2[C@H]1[C@@H]1O[C@H]2[C@](C)(OC(=O)CCC)CC[C@H](O)C(=C)[C@H]1O [LITOPHYNOL A]	Toxic
C=C1CC[C@H](C(C)C)[C@@H]2[C@H]1[C@@H]1O[C@H]2[C@](C)(OC(=O)CCC)CC[C@H](O)[C@@](C)(O)[C@H]1O [LITOPHYNOL B]	Toxic

— ChEMBL document CHEMBL1148055, “Bioactive terpenoids from Octocorallia, I. Bioactive diterpenoids: litophynols A and B from the mucus of the soft coral Litophyton sp” (J Nat Prod, 1994)
